The kinase profiling compilation of Christmann-Franck et al. (2016)

Key:
Assay in all cases: KINOMEscan competition binding
Settings in all cases: compound 10.0 µM
[1] = biological target: ADCK4 (human) (UniProt Q96D53)
[2] = biological target: ALK (human) (UniProt Q9UM73)
[3] = biological target: BMPR1A (human) (UniProt P36894)
[4] = biological target: CAMK1G (human) (UniProt Q96NX5)
[5] = biological target: CAMK2D (human) (UniProt Q13557)
[6] = biological target: CDKL3 (human) (UniProt Q8IVW4)
[7] = biological target: CLK3 (human) (UniProt P49761)
[8] = biological target: DAPK1 (human) (UniProt P53355)
DAPK1 (human), sequence (P53355 whole entry, looked up): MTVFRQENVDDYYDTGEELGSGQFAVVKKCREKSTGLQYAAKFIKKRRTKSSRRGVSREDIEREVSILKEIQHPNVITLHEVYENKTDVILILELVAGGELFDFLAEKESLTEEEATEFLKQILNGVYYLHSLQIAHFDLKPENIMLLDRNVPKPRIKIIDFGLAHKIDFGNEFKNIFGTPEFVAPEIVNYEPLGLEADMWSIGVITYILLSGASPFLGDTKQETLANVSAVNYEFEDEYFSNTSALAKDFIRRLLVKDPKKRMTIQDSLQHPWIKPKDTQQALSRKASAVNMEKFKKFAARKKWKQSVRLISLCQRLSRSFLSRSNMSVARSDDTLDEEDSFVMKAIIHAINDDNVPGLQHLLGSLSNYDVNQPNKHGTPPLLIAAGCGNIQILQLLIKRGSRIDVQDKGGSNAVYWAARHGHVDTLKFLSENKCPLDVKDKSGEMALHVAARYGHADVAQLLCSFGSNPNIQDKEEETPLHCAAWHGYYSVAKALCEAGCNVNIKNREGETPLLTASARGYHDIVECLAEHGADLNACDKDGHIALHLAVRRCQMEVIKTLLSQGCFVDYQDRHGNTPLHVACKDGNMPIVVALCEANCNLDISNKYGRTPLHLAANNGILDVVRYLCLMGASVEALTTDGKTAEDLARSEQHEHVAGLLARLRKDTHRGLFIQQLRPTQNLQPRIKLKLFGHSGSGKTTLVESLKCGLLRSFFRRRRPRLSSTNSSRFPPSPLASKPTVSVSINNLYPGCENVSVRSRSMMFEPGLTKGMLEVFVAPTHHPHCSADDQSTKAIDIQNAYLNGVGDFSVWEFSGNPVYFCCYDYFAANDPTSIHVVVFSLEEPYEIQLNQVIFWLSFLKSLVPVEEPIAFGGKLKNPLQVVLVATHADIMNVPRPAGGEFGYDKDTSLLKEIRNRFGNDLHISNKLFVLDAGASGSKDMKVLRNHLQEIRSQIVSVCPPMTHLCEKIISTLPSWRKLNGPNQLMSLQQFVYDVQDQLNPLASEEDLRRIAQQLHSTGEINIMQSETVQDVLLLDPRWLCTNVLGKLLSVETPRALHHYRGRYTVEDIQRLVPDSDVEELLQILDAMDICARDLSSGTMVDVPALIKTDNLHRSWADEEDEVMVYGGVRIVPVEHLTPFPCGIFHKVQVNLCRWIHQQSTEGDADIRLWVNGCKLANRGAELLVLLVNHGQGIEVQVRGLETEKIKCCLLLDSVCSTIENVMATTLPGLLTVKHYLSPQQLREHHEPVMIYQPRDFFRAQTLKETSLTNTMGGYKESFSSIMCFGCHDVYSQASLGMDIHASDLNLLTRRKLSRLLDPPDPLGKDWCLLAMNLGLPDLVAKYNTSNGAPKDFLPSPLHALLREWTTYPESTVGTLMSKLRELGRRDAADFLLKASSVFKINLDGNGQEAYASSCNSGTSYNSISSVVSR

[9] = biological target: EPHB6 (human) (UniProt O15197)
[10] = biological target: FGFR2 (human) (UniProt P21802)
[11] = tested on: FLT3 (human), P36888 [D835Y]
[12] = biological target: FYN (human) (UniProt P06241)
FYN (human), sequence (P06241 whole entry, looked up): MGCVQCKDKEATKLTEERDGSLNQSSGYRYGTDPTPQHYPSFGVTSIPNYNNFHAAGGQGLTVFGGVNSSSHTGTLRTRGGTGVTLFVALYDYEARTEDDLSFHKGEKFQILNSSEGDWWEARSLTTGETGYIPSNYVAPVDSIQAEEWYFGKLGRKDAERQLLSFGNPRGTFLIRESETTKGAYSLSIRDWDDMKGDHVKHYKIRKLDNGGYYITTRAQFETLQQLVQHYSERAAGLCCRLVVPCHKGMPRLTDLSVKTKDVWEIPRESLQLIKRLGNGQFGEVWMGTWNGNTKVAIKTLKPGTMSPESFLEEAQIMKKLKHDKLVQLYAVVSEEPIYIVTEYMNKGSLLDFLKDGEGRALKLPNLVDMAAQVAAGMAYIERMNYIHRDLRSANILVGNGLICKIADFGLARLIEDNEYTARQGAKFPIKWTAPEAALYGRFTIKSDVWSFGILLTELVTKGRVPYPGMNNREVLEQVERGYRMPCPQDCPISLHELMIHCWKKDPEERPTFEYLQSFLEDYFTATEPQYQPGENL

[13] = biological target: GRK7 (human) (UniProt Q8WTQ7)
[14] = biological target: HUNK (human) (UniProt P57058)
[15] = biological target: INSRR (human) (UniProt P14616)
[16] = biological target: MAP2K2 (human) (UniProt P36507)
[17] = biological target: MAP2K4 (human) (UniProt P45985)
[18] = biological target: MAP3K1 (human) (UniProt Q13233)
[19] = biological target: MAP3K12 (human) (UniProt Q12852)
MAP3K12 (human), sequence (Q12852 whole entry, looked up): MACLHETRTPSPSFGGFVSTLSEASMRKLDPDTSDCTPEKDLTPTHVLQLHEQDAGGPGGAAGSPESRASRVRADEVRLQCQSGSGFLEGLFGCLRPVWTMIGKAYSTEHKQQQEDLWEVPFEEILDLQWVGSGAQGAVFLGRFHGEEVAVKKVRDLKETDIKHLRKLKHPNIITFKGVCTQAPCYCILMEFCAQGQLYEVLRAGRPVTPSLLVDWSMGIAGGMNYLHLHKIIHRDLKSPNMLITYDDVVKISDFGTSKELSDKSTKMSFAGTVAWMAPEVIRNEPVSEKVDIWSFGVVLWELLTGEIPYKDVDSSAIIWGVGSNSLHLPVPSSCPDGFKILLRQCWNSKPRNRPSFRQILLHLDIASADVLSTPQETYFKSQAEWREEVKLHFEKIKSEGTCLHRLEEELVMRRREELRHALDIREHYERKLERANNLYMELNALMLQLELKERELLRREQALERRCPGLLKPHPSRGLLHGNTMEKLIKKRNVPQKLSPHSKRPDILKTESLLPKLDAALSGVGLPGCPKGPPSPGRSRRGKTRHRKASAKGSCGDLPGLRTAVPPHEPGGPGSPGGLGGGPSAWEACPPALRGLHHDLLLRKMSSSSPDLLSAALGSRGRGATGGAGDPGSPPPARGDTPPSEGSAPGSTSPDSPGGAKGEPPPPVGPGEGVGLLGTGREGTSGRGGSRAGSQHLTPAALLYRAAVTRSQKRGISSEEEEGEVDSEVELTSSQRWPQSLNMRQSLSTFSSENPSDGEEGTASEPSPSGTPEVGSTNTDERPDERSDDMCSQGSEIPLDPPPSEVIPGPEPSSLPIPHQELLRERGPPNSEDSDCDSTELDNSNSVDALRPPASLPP

[20] = biological target: MAP4K1 (human) (UniProt Q92918)
[21] = biological target: MAP4K4 (human) (UniProt O95819)
[22] = biological target: MAP4K5 (human) (UniProt Q9Y4K4)
[23] = biological target: MAPK3 (human) (UniProt P27361)
[24] = biological target: MAPK4 (human) (UniProt P31152)
[25] = biological target: MAPKAPK2 (human) (UniProt P49137)
[26] = biological target: MERTK (human) (UniProt Q12866)
[27] = tested on: MET (human), P08581 [Y1235D]
[28] = biological target: MKNK2 (human) (UniProt Q9HBH9)
MKNK2 (human), sequence (Q9HBH9 whole entry, looked up): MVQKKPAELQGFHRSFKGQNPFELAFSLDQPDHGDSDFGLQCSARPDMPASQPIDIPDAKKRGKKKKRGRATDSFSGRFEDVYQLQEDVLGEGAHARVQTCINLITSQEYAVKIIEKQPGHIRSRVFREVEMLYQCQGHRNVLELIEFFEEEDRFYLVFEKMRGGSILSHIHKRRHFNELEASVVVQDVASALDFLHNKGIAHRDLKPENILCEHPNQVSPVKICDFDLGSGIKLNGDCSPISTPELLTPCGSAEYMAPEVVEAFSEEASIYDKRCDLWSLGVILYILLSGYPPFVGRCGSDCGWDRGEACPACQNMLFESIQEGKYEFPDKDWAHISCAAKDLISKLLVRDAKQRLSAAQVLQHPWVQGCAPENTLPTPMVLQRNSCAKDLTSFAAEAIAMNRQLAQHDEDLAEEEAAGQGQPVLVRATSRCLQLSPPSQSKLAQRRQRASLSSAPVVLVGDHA

[29] = biological target: MYO3A (human) (UniProt Q8NEV4)
[30] = biological target: PAK1 (human) (UniProt Q13153)
[31] = biological target: PAK7 (human) (UniProt Q9P286)
[32] = tested on: PIK3CA (human), P42336 [C420R]
[33] = biological target: PKN2 (human) (UniProt Q16513)
PKN2 (human), sequence (Q16513 whole entry, looked up): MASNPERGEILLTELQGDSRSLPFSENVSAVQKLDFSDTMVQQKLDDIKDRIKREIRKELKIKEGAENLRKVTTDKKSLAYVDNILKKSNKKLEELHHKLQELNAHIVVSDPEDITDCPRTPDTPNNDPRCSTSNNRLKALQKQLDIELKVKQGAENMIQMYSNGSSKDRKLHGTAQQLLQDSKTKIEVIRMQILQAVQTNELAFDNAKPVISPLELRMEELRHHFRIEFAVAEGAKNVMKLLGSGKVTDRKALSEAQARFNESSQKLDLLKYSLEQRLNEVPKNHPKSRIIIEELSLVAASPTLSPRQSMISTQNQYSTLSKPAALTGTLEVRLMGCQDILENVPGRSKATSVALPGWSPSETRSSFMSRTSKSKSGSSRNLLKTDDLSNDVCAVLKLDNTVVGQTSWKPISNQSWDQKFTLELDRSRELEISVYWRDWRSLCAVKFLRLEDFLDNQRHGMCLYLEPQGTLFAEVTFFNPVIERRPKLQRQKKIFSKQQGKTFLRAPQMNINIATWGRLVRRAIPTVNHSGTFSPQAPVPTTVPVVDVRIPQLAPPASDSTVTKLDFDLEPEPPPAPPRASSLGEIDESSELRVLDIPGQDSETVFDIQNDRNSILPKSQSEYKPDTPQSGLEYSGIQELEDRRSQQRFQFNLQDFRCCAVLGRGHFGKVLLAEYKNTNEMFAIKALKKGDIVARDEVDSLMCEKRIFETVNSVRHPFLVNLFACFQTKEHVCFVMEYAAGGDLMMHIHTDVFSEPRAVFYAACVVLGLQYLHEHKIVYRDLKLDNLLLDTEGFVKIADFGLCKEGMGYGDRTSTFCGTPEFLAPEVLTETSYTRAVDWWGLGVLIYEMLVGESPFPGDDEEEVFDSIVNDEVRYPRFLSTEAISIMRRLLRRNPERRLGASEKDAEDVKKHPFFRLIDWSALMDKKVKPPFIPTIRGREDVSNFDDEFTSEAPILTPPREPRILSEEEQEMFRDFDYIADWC

[34] = biological target: PRKACA (human) (UniProt P17612)
[35] = biological target: RIPK4 (human) (UniProt P57078)
[36] = biological target: ROS1 (human) (UniProt P08922)
[37] = biological target: RPS6KA5 KD2 (human) (UniProt O75582)
[38] = biological target: RPS6KA6 KD1 (human) (UniProt Q9UK32)
[39] = biological target: SGK110 (human) (UniProt P0C264)
[40] = biological target: TEK (human) (UniProt Q02763)
[41] = biological target: TLK1 (human) (UniProt Q9UKI8)
TLK1 (human), sequence (Q9UKI8 whole entry, looked up): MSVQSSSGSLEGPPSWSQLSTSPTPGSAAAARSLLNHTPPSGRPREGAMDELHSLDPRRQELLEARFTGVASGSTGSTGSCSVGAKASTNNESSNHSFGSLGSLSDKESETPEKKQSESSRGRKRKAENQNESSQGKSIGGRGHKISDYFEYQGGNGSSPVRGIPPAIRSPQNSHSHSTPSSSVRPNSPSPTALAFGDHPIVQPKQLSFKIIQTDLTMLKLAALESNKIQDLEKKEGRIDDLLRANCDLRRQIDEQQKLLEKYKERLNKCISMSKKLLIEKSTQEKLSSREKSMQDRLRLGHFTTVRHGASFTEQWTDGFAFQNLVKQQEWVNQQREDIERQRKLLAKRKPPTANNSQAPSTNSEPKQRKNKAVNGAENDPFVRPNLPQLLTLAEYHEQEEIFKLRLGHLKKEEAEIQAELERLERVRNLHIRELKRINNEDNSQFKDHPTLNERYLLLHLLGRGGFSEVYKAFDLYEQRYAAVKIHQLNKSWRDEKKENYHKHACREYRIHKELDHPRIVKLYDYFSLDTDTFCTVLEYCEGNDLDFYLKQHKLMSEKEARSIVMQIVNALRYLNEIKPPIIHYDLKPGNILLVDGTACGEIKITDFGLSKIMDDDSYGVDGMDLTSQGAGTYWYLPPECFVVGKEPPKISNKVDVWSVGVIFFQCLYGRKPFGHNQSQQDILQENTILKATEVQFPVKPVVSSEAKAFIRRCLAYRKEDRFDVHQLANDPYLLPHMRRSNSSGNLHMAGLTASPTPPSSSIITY

kinase still bound, per cent of control [1]: 100% | kinase still bound, per cent of control [2]: 100% | kinase still bound, per cent of control [3]: 100% | kinase still bound, per cent of control [4]: 70% | kinase still bound, per cent of control [5]: 56% | kinase still bound, per cent of control [6]: 100% | kinase still bound, per cent of control [7]: 1.4% | kinase still bound, per cent of control [8]: 79% | kinase still bound, per cent of control [9]: 100% | kinase still bound, per cent of control [10]: 100% | kinase still bound, per cent of control [11]: 16% | kinase still bound, per cent of control [12]: 96% | kinase still bound, per cent of control [13]: 51% | kinase still bound, per cent of control [14]: 100% | kinase still bound, per cent of control [15]: 72% | kinase still bound, per cent of control [16]: 100% | kinase still bound, per cent of control [17]: 82% | kinase still bound, per cent of control [18]: 100% | kinase still bound, per cent of control [19]: 90% | kinase still bound, per cent of control [20]: 62% | kinase still bound, per cent of control [21]: 76% | kinase still bound, per cent of control [22]: 83% | kinase still bound, per cent of control [23]: 99% | kinase still bound, per cent of control [24]: 100% | kinase still bound, per cent of control [25]: 100% | kinase still bound, per cent of control [26]: 100% | kinase still bound, per cent of control [27]: 85% | kinase still bound, per cent of control [28]: 89% | kinase still bound, per cent of control [29]: 95% | kinase still bound, per cent of control [30]: 80% | kinase still bound, per cent of control [31]: 75% | kinase still bound, per cent of control [32]: 86% | kinase still bound, per cent of control [33]: 100% | kinase still bound, per cent of control [34]: 100% | kinase still bound, per cent of control [35]: 100% | kinase still bound, per cent of control [36]: 100% | kinase still bound, per cent of control [37]: 100% | kinase still bound, per cent of control [38]: 75% | kinase still bound, per cent of control [39]: 100% | kinase still bound, per cent of control [40]: 73% | kinase still bound, per cent of control [41]: 36%
SMILES: Cn1cc(C2=C(c3ccc(Cl)cc3Cl)C(=O)NC2=O)c2ccccc21
